Measurements published in ChEMBL document CHEMBL1201862, “PubChem BioAssay data set” (2004).
Activity calls are given as the source filed them.

Legend:
[1] = target: Nuclear receptor subfamily 5 group A member 2 (Homo sapiens, UniProt O00482); assay type: functional, cell-based;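 also: HEK293T cells transfected with LRH-1 and a StAR promoter luciferase reporter; potency for inhibitors that lower LRH-1 driven reporter light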
[2] = nonselective StAR promoter luciferase inhibitors – cell-based, luminescence, luciferase reporter, counter-screen for LRH-1 inverse agonist project, dose response (AID 651969); assay type: functional
Steroidogenic factor 1 = Steroidogenic factor 1 (Homo sapiens, UniProt Q13285); assay: Counterscreen for inverse agonists of the liver receptor homolog-1 (LRH-1; NR5A2): Luminescence-based cell-based high throughput dose response assay to identify inverse agonists of the Steroidogenic Factor 1 Nuclear Receptor (SF1; NR5A1).; assay type: functional
[3] = target: Dual specificity tyrosine-phosphorylation-regulated kinase 1A (Rattus norvegicus, UniProt Q63470); assay type: biochemical, Homo sapiens
[4] = target: Long-chain-fatty-acid--AMP ligase FadD28 (Mycobacterium tuberculosis, UniProt P9WQ59); assay: Fluorescence polarization aasay to screen for inhibitors that compete for the binding of FadD28 to a bisubstrate Measured in Biochemical System Using Plate Reader - 2147-01_Inhibitor_Dose_CherryPick_Activity.; assay type: functional, Mycobacterium tuberculosis H37Rv
Protein Wnt-3a = Protein Wnt-3a (Mus musculus, UniProt P27467); assay: SAR analysis of small molecule antagonists of Gli-SUFU in a Wnt3a luminescent reporter assay.; assay type: functional
[5] = target: Glucose-6-phosphate 1-dehydrogenase (Homo sapiens, UniProt P11413); assay: inhibition of Homo sapiens G6PD, dose series – biochemical, fluorescence, selectivity assay for P. falciparum G6PD inhibitor project, dose response (AID 504792); assay type: functional
[6] = target: T1, Rac GTPase-activating protein 1 (Homo sapiens, UniProt Q9H0H5); assay: blockers of MgcRacGAP-driven Rac1 GTP hydrolysis – biochemical, ADP Hunter fluorescence, primary and confirmatory, confirmation (AID 624330); assay type: functional
T1 sequence (Q9H0H5 whole entry): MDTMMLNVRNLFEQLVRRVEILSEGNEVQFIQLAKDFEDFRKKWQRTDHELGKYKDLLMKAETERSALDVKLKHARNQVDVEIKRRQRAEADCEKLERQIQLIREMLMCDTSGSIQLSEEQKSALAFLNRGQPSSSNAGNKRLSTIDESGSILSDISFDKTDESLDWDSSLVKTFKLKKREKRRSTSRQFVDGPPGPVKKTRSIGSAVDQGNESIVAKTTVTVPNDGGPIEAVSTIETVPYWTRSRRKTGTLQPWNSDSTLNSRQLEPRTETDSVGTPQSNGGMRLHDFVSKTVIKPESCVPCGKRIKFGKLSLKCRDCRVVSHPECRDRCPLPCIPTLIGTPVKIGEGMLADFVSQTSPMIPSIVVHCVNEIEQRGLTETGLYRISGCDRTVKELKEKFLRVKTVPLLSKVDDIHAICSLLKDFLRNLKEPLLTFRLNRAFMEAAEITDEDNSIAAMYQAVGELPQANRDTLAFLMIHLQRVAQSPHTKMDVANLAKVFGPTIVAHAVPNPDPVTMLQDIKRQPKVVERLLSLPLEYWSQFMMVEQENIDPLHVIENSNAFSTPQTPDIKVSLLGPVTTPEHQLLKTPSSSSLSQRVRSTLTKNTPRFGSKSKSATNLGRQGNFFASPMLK

[7] = target: T2, DNA repair protein RAD52 homolog (Homo sapiens, UniProt P43351); assay type: functional, biochemical
T2 sequence (P43351 whole entry): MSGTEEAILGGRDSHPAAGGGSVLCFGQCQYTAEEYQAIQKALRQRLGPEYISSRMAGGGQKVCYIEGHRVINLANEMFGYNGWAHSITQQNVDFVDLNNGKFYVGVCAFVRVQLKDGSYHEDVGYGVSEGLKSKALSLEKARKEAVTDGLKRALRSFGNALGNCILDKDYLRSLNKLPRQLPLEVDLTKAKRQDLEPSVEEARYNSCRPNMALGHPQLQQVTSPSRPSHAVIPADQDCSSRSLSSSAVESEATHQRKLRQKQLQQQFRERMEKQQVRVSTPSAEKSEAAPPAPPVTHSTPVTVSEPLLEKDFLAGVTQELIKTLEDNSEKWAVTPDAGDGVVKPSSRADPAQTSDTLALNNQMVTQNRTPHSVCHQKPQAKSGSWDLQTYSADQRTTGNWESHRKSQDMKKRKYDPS

Kallikrein-7 = Kallikrein-7 (Homo sapiens, UniProt P49862); assay: Fluorescence Intensity-based biochemical primary high throughput dose response assay to identify activators of kallikrein-7 (K7) zymogen.
[8] = Counterscreen for activators of the function of SWI/SNF related, matrix associated, actin dependent regulator of chromatin, subfamily a, member 2 (SMARCA2, BRM): Luminescence-based cell-based high throughput dose response assay to identify non-selective compounds using the VP16 reporter assay.; assay type: functional
[9] = target: SWI/SNF-related matrix-associated actin-dependent regulator of chromatin subfamily A member 2 (Homo sapiens, UniProt P51531); assay: Luminescence-based cell-based high throughput dose response assay to identify activators of the function of SWI/SNF related, matrix associated, actin dependent regulator of chromatin, subfamily a, member 2 (SMARCA2, BRM).; assay type: functional
[10] = viability loss in HeLa cells – cytotoxicity control for MgcRacGAP inhibitor project, dose response (AID 624300); assay type: functional
Cytochrome P450 2C19 = Cytochrome P450 2C19 (Homo sapiens, UniProt P33261); assay: Cytochrome panel assay with activity outcomes. Panel member name: p450-cyp2c19 Compounds with AC50 equal or less than 10 uM are considered active; assay type: functional; conditions: read-out: AC50
Sequence of Cytochrome P450 2C19 (P33261 whole entry): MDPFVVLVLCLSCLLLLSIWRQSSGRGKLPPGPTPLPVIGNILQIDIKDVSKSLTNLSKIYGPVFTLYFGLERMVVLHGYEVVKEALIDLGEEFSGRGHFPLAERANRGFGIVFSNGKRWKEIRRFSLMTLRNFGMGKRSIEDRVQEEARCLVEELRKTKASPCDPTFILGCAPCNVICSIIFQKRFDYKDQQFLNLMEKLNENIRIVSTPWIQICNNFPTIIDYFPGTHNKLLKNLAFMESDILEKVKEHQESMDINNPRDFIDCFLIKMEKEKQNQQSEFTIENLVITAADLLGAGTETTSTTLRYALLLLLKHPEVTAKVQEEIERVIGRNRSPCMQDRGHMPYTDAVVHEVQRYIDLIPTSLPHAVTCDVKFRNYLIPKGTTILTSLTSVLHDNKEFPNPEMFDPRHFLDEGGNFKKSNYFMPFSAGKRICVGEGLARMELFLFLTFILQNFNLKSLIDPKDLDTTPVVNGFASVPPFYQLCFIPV

Sequence of Steroidogenic factor 1 (Q13285 whole entry): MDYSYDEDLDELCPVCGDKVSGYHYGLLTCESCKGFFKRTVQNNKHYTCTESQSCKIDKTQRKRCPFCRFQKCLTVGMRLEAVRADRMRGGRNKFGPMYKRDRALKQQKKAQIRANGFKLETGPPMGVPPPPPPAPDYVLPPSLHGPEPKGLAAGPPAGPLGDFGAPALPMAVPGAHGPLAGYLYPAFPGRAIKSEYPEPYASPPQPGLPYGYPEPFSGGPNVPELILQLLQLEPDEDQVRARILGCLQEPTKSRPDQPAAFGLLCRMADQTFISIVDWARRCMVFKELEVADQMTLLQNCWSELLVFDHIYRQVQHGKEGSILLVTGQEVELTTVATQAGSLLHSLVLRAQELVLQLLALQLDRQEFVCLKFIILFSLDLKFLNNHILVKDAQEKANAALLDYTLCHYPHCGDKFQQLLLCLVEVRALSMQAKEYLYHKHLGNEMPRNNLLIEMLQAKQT
Sequence of Protein Wnt-3a (P27467 whole entry): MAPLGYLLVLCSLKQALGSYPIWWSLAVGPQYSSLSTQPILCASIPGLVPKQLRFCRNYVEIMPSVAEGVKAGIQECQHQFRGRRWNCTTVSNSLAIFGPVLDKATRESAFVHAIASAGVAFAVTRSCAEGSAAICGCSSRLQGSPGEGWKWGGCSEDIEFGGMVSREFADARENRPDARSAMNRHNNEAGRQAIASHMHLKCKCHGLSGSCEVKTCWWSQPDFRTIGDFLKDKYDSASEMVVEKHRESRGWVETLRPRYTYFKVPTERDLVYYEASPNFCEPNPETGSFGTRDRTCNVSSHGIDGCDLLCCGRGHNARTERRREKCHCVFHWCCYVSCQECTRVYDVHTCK
Sequence of Nuclear receptor subfamily 5 group A member 2 (O00482 whole entry): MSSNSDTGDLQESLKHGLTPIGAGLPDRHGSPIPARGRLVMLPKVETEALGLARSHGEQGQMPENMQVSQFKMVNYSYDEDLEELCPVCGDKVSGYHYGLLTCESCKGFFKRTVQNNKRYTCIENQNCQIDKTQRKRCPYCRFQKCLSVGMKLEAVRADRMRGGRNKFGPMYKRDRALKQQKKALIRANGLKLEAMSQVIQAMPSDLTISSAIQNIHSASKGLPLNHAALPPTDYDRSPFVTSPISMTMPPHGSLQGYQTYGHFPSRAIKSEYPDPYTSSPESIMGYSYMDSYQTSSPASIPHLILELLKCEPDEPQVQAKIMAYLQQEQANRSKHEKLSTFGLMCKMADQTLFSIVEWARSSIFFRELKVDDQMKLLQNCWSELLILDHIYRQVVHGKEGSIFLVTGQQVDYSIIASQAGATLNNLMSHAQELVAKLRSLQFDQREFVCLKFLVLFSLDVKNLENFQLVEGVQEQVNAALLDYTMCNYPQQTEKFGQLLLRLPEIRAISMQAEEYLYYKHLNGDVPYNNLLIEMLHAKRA
Sequence of SWI/SNF-related matrix-associated actin-dependent regulator of chromatin subfamily A member 2 (P51531 whole entry): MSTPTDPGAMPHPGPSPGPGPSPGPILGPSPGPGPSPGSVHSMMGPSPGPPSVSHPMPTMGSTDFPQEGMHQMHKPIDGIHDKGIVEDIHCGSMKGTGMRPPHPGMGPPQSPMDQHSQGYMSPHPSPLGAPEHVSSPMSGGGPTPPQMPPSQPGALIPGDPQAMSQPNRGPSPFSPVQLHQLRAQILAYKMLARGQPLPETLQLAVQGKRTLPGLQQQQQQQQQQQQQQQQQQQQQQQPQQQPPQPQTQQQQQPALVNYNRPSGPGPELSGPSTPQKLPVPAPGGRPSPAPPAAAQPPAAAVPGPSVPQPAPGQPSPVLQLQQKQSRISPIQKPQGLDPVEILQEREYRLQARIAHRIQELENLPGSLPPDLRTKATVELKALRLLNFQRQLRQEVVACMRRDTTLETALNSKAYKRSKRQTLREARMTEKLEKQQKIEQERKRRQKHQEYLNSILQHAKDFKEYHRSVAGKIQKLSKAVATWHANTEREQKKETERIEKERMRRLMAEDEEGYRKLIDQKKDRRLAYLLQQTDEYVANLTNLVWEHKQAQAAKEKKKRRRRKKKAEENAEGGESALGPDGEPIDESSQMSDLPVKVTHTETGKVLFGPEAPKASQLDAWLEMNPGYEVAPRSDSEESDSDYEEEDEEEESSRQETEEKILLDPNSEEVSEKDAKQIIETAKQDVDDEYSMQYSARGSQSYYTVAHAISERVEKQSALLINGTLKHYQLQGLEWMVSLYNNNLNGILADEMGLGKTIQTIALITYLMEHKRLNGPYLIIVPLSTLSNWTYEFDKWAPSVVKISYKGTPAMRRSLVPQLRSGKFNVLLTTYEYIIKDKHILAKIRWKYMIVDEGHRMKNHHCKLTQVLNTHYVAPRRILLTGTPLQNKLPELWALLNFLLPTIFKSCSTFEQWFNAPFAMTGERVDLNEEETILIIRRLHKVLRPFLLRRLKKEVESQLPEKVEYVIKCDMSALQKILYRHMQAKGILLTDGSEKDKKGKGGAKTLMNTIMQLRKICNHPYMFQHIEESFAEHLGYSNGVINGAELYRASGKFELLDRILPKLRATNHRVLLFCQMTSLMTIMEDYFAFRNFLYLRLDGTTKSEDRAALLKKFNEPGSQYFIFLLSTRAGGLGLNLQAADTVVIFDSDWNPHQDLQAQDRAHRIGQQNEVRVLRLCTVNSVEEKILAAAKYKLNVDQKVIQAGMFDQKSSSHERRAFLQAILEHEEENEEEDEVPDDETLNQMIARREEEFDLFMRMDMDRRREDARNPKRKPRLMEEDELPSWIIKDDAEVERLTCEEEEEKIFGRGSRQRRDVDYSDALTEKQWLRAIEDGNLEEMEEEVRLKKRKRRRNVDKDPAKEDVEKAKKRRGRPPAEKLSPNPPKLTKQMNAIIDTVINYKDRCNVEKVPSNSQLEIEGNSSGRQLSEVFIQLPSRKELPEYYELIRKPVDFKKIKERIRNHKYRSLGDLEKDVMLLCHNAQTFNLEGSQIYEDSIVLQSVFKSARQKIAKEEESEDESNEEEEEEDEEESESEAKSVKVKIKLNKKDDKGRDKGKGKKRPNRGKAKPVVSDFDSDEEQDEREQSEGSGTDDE
Sequence of Glucose-6-phosphate 1-dehydrogenase (P11413 whole entry): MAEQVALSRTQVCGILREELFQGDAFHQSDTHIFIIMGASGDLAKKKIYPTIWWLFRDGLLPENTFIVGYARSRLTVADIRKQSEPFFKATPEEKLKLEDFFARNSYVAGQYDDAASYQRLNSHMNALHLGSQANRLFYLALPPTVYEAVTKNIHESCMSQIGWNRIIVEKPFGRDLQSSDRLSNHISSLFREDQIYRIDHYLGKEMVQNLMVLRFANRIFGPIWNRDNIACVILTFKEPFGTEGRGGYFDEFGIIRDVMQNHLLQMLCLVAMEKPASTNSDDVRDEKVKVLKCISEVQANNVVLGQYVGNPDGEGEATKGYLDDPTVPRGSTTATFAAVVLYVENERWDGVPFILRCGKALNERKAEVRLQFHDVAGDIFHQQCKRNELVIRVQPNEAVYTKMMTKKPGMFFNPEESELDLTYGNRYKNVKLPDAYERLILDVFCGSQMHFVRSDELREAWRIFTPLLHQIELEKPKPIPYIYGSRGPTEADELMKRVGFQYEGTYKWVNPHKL
Sequence of Kallikrein-7 (P49862 whole entry): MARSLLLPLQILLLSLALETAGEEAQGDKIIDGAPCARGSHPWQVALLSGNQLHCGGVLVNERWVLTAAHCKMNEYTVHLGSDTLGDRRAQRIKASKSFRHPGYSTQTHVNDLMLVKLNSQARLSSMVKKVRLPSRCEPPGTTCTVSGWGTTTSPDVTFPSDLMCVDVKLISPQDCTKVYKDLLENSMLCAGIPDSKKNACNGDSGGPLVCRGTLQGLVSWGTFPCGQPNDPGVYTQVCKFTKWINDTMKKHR
Sequence of Long-chain-fatty-acid--AMP ligase FadD28 (P9WQ59 whole entry): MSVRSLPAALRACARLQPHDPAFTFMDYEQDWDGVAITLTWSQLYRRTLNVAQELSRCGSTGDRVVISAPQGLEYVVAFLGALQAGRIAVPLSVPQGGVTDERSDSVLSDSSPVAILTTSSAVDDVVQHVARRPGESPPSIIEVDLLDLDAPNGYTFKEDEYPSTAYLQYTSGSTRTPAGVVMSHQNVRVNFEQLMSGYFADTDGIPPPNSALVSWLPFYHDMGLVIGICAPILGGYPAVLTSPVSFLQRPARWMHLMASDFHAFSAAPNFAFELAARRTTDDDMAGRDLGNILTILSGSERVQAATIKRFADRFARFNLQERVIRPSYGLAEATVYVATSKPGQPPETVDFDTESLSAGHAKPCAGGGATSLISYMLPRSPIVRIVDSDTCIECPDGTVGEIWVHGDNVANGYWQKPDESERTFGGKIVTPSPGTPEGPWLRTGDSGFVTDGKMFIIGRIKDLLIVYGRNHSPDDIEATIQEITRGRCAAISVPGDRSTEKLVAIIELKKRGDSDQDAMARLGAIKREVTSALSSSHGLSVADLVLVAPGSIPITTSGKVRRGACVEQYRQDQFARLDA

Row | Compound | IC50 [1] | IC50 [2] | IC50 (Steroidogenic factor 1) | AC50 [3] | IC50 (Protein Wnt-3a) | further results
1 | Cc1ccc(-c2nn3c(C)nnc3s2)cc1NC(=O)c1cccs1 | 1.13 µM (active) | 35.9 µM (inactive) | 0.684 µM (active) | – | – | –
2 | COc1cccc(/C=N/n2c(S)nnc2C2CCCCC2)c1O | – | – | – | 6.14 µM (active) | – | AC50 [4]: 16.8 µM (active)
3 | Cc1ccc(NC(=O)CN2C(=O)NC(C)(CC(C)C)C2=O)c(Br)c1 (centres undefined) | 11.7 µM (inactive) | 35.9 µM (inactive) | 8.09 µM (active) | – | – | –
4 | COc1cc(OC)cc(C(=O)Nc2cc(N3CCCC3)ncn2)c1 | – | – | – | – | > 21.8 µM (inactive) | –
5 | CCN(CC)c1cc(NC(=O)c2ccc(Br)o2)ncn1 | – | – | – | – | > 21.8 µM (inactive) | –
6 | COc1ccc2nc3cc(Cl)ccc3c(Nc3ccc(O)c(CN4CCN(C)CC4)c3)c2c1 | – | – | – | 7.7 µM (active) | – | IC50 [5]: > 80 µM (inactive); IC50 [6]: 45.4 µM (active); AC50 [7]: < 0.15 µM (active); EC50 (Kallikrein-7): > 69.5 µM (inactive); EC50 [8]: > 91.1 µM (inactive); EC50 [9]: > 91.1 µM (inactive); CC50 [10]: 25.6 µM (active); AC50 (Cytochrome P450 2C19): 2.51 µM (inconclusive)
